Results as given in US20140336182A1, “Aurora Kinase Modulators and Method of Use” (Amgen Inc., priority 2013, published 2014).

tested on: HeLa cells; assay: HeLa cell 24 hr ploidy assay (DNA content); assay type: cell-based; conditions: Homo sapiens, HeLa, 4N ploidy, average, read-out: 24h_4NPloidy EC50_IP (uM Avg)
In short: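 DNA content measured by Hoechst 33342 nuclear staining (0.5 ug/ml, 45 min RT) and high-content imaging of fixed HeLa cells after 24 h compound exposure in 0.25% DMSO. Fractions of 4N and >4N cells fitted to dose curves giving EC50 IP, EC50 transit, Max and Min.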

EC50	SMILES
0.017 µM	COc1cc2nccc(Oc3ccc(Nc4nnc(-c5cccc(C)n5)c5ccccc45)cc3)c2cc1OC [compound 150]
0.85 µM	COc1cnc2c(Oc3ccc(Nc4nnc(-c5ccc(OC(C)C)cc5)c5ccccc45)cc3)ccnc2c1 [compound 137]
0.061 µM	COc1cnc2c(Oc3ccc(Nc4nnc(-c5ccc(Cl)c(C#N)c5)c5ccccc45)cc3)ccnc2c1 [compound 154]
3.09 µM	COc1cc2nccc(Oc3ccc(Nc4nnc(-n5nc(C)cc5C)c5ccccc45)cc3F)c2cc1OC [compound 77]
0.061 µM	COc1cnc2c(Oc3ccc(Nc4nnc(-c5nc(C)cs5)c5ccccc45)cc3)ccnc2c1 [compound 82, N-(4-((7-(methyloxy)-1,5-naphthyridin-4-yl)oxy)phenyl)-4-(4-methyl-1,3-thiazol-2-yl)-1-phthalazinamine]

same assay, conditions: Homo sapiens, HeLa, HeLa cells, 4N ploidy, average, read-out: 24h_4NPloidy EC50_IP (uM Avg)

EC50	SMILES
0.381 µM	Brc1cnc2c(Oc3ccc(Nc4nnc(-c5ccccc5)c5ccccc45)cc3)ccnc2c1 [compound 245]
0.006 µM	c1ccc2c(-c3ccc4c(c3)CCO4)nnc(Nc3ccc(Oc4ccnc5ccsc45)cc3)c2c1 [compound 272]
> 1.2 µM	Clc1ccc(-c2nnc(Nc3ccc(Oc4ncnc5[nH]cnc45)cc3)c3ccccc23)cc1 [compound 266]
0.008 µM	Cc1ccc(-c2nnc(Nc3ccc(Oc4ccnc5cccnc45)cc3)c3ccccc23)cc1N [compound 416]
0.077 µM	COc1cnc2c(Oc3ccc(Nc4nnc(-c5cc(C)no5)c5ccccc45)cc3)ccnc2c1 [compound 350]
0.001 µM	COc1cnc2c(Sc3ccc(Nc4nnc(-c5ccc6c(c5)OCO6)c5ccccc45)cc3)ccnc2c1 [compound 530]
0.007 µM	COc1ccc(-c2nnc(Nc3ccc(Sc4ccnc5cc(OC)cnc45)cc3)c3ccccc23)cc1 [compound 357]
0.025 µM	c1ccc(-c2nnc(Nc3ccc(Oc4ccnc5cc(-c6ccoc6)ccc45)cc3)c3ccccc23)cc1 [compound 343]
0.009 µM	Cc1ccc(-c2nnc(Nc3ccc(Sc4ccnc5cc(C#N)oc45)cc3)c3ccccc23)cc1N [compound 490]

Continued, compound first:

SMILES	EC50
COc1ccc2c(Oc3ccc(Nc4nnc(-c5ccc(Cl)cc5)c5c4CCC5)cc3)ccnc2c1 [compound 412]	> 1.2 µM
COc1cnc2c(Sc3ccc(Nc4nnc(NCCc5ccccn5)c5ccccc45)cc3)ccnc2c1 [compound 537]	0.002 µM
COc1ccc2nccc(Sc3ccc(Nc4nnc(-c5ccc(Cl)cn5)c5ccccc45)cc3)c2n1 [compound 550]	0.016 µM
c1ccc2c(-c3ccc4c(c3)OCO4)nnc(Nc3ccc(Sc4ccnc5ccncc45)cc3)c2c1 [compound 427]	0.002 µM
COc1cnc2c(Sc3ccc(Nc4nnc(OC)c5ccccc45)cc3)ccnc2c1 [Example 402, 4-Methoxy-N-(4-(7-methoxy-1,5-naphthyridin-4-ylthio)phenyl)phthalazin-1-amine]	0.066 µM
Clc1ccc(-c2nnc(Nc3ccc(Sc4ccnc5[nH]cnc45)cc3)c3ccccc23)cc1 [compound 363]	0.032 µM
c1ccc(-c2nnc(Nc3ccc(Sc4ccnc5ccsc45)cc3)c3ccccc23)cc1 [compound 355]	0.015 µM
Cc1csc(-c2nnc(Nc3ccc(Sc4ccnc5ccsc45)cc3)c3ccccc23)c1 [compound 366]	0.002 µM
Oc1ccc2nccc(Sc3ccc(Nc4nnc(-c5ccc(Cl)cc5)c5ccccc45)cc3)c2c1 [Example 388, 4-(4-(4-(4-Chlorophenyl)phthalazin-1-ylamino)phenylthio)quinolin-6-ol]	0.013 µM
N#Cc1cc2nccc(Sc3ccc(Nc4nnc(-c5ccc(Cl)cc5)c5ccccc45)cc3)c2s1 [compound 351]	0.053 µM

same assay, conditions: Homo sapiens, HeLa, HeLa cells, 4N ploidy, given as class symbol, read-out: 24h_4NPloidy EC50_IP (uM Avg)

EC50	SMILES
< 0.1 µM	Fc1cc(F)c2c(Sc3ccc(Nc4nnc(-c5ccccc5)c5ccccc45)cc3)ccnc2c1 [compound 295]

same assay, conditions: Homo sapiens, HeLa, HeLa cells, average, read-out: 24h_4NPloidy EC50_IP (uM Avg)

EC50	SMILES
0.014 µM	Clc1ccc(-c2nnc(Nc3ccc(Oc4ccnc5cc(OCc6ccccc6)cnc45)cc3)c3ccccc23)cc1 [compound 610]
0.032 µM	Oc1cnc2c(Oc3ccc(Nc4nnc(-c5ccc(Cl)cc5)c5ccccc45)cc3)ccnc2c1 [Example 409, 8-(4-(4-(4-Chlorophenyl)phthalazin-1-ylamino)phenoxy)-1,5-naphthyridin-3-ol]
